In paper PMC12736120, “First-in-Human Phase I Clinical Trial of SLC-391, a Novel and Selective AXL Inhibitor, in Patients with Advanced Solid Tumours” (Pharmaceuticals, 2025):
Read-outs that look alike come from different tables or passages of the source.

Test: Plasma pharmacokinetics, QD and BID cohorts (non-compartmental)
Type: in vivo, human
Conditions: for Tmax / AUC / AUC(0-t) / Cmax / concentration at 21 days: human, plasma, oral; for concentration at 21 days: read-out: Cmin, range across cohorts
Experimental: PK parameters were calculated by standard non-compartmental methods for SLC-391. Due to the long half-life of SLC-391 compared to the dosing interval, it was not possible to calculate a number of PK parameters, including plasma half-life and rate of elimination. Accumulation was assessed from the mean accumulation ratio factor (AR factor) calculated as the repeated dose (C1D21) mean value/single dose (C1D1) mean value for the PK parameters Cmax, AUC0–12, and AUC0–last for each dose group.
During QD dosing, blood samples for determination of SLC-391 plasma concentrations were collected predose and at 0.5, 1, 2, 3, 4, 6, 8, and 24 h after SLC-391 administration on cycle 1 day 1 (C1D1) and cycle 1 day 21 (C1D21). During BID dosing, blood samples were collected predose and at 1, 2, 3, 4, 6, 8, and 12 h after the first daily dose (before the second daily dose). Where possible, further samples were then collected at 13, 14, 22, and 24 h after the initial dose (predose C1D2). Blood samples were also collected on C1D21 (steady state) predose and at 1, 2, 3, 4, 6, 8, and 12 h after the first daily dose (before the second daily dose). Where possible, further samples were then collected at 13, 14, 22, and 24 h after the initial C1D21 dose (predose C2D1). An additional blood sample was also taken, where possible, at the end of treatment (EOT) visit.
After collection, blood samples were centrifuged, and plasma was separated and stored at −80 °C. Plasma concentrations of SLC-391 were measured by a validated analytical method involving liquid–liquid extraction followed by high-performance liquid chromatography (HPLC)–mass/mass spectroscopy assay using a Water Quattro Premier tandem quadrupole mass spectroscopy with Waters MassLynx data acquisition and processing software. Plasma analysis was carried out by Microconstants (San Diego, CA, USA) in compliance with the US FDA GLP regulations. The calibration range of the assay was from 0.100 to 100 ng/mL. Quality control samples prepared at 4 different analyte concentrations were analysed with each batch of samples against a separately prepared calibration standard. PK parameters were collected following single (day 1) and repeat dose (day 21) administration. PK parameters were summarised with appropriate descriptive statistics where possible (e.g., mean, geometric mean, median, maximum, minimum, and coefficient of variation). Descriptive PK parameters were determined by standard non-compartmental methods based on the concentration–time data of each subject. The nominal time was used for descriptive statistics calculations, and the actual sample collection times were used in PK analyses. PK analyses were performed using validated Phoenix WinNonlin Professional 8.3 (Certara, L.P., St. Louis, MO, USA).

Question: Which Tmax (150 mg, QD, C1D1, read-out: Tmax, Median) does the source give for `Nc1ncc(-c2cnn(C3CCNCC3)c2)cc1-c1nnc(CC2CC2)o1` [SLC-391, 3-(5-[cyclopropylmethyl]-1,3,4-oxadiazol-2-yl)-5-(1-[piperidin-4-yl]-1H-pyrazol-4-yl)-pyridin-2-amine] here?
Answer: Its Tmax is 2.1 h.

Question: What about the AUC (150 mg, QD, C1D21, read-out: AUC0–12, Mean) of the same molecule?
Answer: Its AUC is 2140 ng·h/mL.

Question: What about the AUC (150 mg, QD, C1D21, read-out: AUC0–12, Median) of the same molecule?
Answer: The AUC was 2080 ng·h/mL.

Question: And the AUC(0-t) (150 mg, QD, C1D21, read-out: AUC0–last, Mean)?
Answer: Its AUC(0-t) is 3620 ng·h/mL.

Question: And the AUC(0-t) (150 mg, QD, C1D21, read-out: AUC0–last, Median)?
Answer: The AUC(0-t) was 3510 ng·h/mL.

Question: What about the Cmax (150 mg, QD, C1D21, read-out: Cmax, Mean) of the same molecule?
Answer: The Cmax was 254 ng/mL.

Question: What about the Cmax (150 mg, QD, C1D21, read-out: Cmax, Median) of the same molecule?
Answer: The Cmax was 269 ng/mL.

Question: What about the Tmax (150 mg, QD, C1D21, read-out: Tmax, Mean) of the same molecule?
Answer: Its Tmax is 2.6 h.

Question: What about the Tmax (150 mg, QD, C1D21, read-out: Tmax, Median) of the same molecule?
Answer: The Tmax was 2 h.

Question: What about the AUC (175 mg, QD, C1D1, n 1, read-out: AUC0–12, Mean) of the same molecule?
Answer: The AUC was 1500 ng·h/mL.

Question: What about the AUC (175 mg, QD, C1D1, n 1, read-out: AUC0–12, Median) of the same molecule?
Answer: The AUC was 1500 ng·h/mL.

Question: And the AUC(0-t) (175 mg, QD, C1D1, read-out: AUC0–last, Mean)?
Answer: Its AUC(0-t) is 1580 ng·h/mL.

Question: What about the AUC(0-t) (175 mg, QD, C1D1, read-out: AUC0–last, Median) of the same molecule?
Answer: The AUC(0-t) was 1580 ng·h/mL.

Question: What about the Cmax (175 mg, QD, C1D1, read-out: Cmax, Mean) of the same molecule?
Answer: Its Cmax is 357 ng/mL.

Question: What about the Cmax (175 mg, QD, C1D1, read-out: Cmax, Median) of the same molecule?
Answer: The Cmax was 357 ng/mL.

Question: And the Tmax (175 mg, QD, C1D1, read-out: Tmax, Mean)?
Answer: Its Tmax is 2 h.

Question: And the Tmax (175 mg, QD, C1D1, read-out: Tmax, Median)?
Answer: Its Tmax is 2 h.

Question: What about the AUC (200 mg, 200 mg BID, C1D1, mean, n=3, plasma, read-out: AUC0–12) of the same molecule?
Answer: The AUC was 985 ng·h/mL.

Question: And the AUC(0-t) (200 mg, 200 mg BID, C1D1, mean, n=3, plasma, read-out: AUC0–last)?
Answer: Its AUC(0-t) is 2050 ng·h/mL.

Question: And the Cmax (200 mg, 200 mg BID, C1D1, mean, n=3, plasma, read-out: Cmax)?
Answer: The Cmax was 174 ng/mL.

Question: And the Tmax (200 mg, 200 mg BID, C1D1, mean, n=3, plasma, read-out: Tmax)?
Answer: The Tmax was 9.7 h.

Question: And the AUC (200 mg, 200 mg BID, C1D1, median, n=3, plasma, read-out: AUC0–12)?
Answer: Its AUC is 1130 ng·h/mL.

Question: What about the AUC(0-t) (200 mg, 200 mg BID, C1D1, median, n=3, plasma, read-out: AUC0–last) of the same molecule?
Answer: Its AUC(0-t) is 2170 ng·h/mL.

Question: What about the Cmax (200 mg, 200 mg BID, C1D1, median, n=3, plasma, read-out: Cmax) of the same molecule?
Answer: Its Cmax is 178 ng/mL.

Question: And the Tmax (200 mg, 200 mg BID, C1D1, median, n=3, plasma, read-out: Tmax)?
Answer: Its Tmax is 3.1 h.

Question: And the AUC (200 mg, 200 mg BID, C1D21, mean, n=2, plasma, read-out: AUC0–12)?
Answer: The AUC was 8550 ng·h/mL.

Question: And the AUC(0-t) (200 mg, 200 mg BID, C1D21, mean, n=2, plasma, read-out: AUC0–last)?
Answer: Its AUC(0-t) is 16400 ng·h/mL.

Question: And the Cmax (200 mg, 200 mg BID, C1D21, mean, n=2, plasma, read-out: Cmax)?
Answer: Its Cmax is 874 ng/mL.

Question: And the Tmax (200 mg, 200 mg BID, C1D21, mean, n=2, plasma, read-out: Tmax)?
Answer: The Tmax was 2.4 h.

Question: What about the AUC (200 mg, 200 mg BID, C1D21, median, n=2, plasma, read-out: AUC0–12) of the same molecule?
Answer: Its AUC is 8550 ng·h/mL.

Question: What about the AUC(0-t) (200 mg, 200 mg BID, C1D21, median, n=2, plasma, read-out: AUC0–last) of the same molecule?
Answer: Its AUC(0-t) is 16400 ng·h/mL.

Question: What about the Cmax (200 mg, 200 mg BID, C1D21, median, n=2, plasma, read-out: Cmax) of the same molecule?
Answer: The Cmax was 874 ng/mL.

Question: What about the Tmax (200 mg, 200 mg BID, C1D21, median, n=2, plasma, read-out: Tmax) of the same molecule?
Answer: Its Tmax is 2.4 h.

Question: What about the AUC(0-t) (BID, 75 mg to 200 mg, C1D1, read-out: mean AUC0–last, range across cohorts) of the same molecule?
Answer: Its AUC(0-t) is 1170 to 2330 ng·h/mL.

Question: What about the Cmax (BID, 75 mg to 200 mg, C1D1, read-out: mean Cmax, range across cohorts) of the same molecule?
Answer: The Cmax was 95.2 to 236 ng/mL.

Question: What about the Tmax (BID, 75 mg to 200 mg, C1D1, read-out: median Tmax, range across cohorts) of the same molecule?
Answer: Its Tmax is 2 to 3.1 h.

Question: And the AUC(0-t) (BID, 75 mg to 200 mg, C1D21, read-out: mean AUC0–last, range across cohorts)?
Answer: Its AUC(0-t) is 4280 to 16400 ng·h/mL.

Question: What about the Cmax (BID, 75 mg to 200 mg, C1D21, read-out: mean Cmax, range across cohorts) of the same molecule?
Answer: Its Cmax is 249 to 874 ng/mL.

Question: And the Tmax (BID, 75 mg to 200 mg, C1D21, read-out: median Tmax, range across cohorts)?
Answer: The Tmax was 1.9 to 2.9 h.

Question: What about the AUC(0-t) (QD, 25 mg to 150 mg, C1D21, read-out: mean AUC0–last, range across cohorts) of the same molecule?
Answer: Its AUC(0-t) is 461 to 3620 ng·h/mL.

Question: What about the Cmax (QD, 25 mg to 150 mg, C1D21, read-out: mean Cmax, range across cohorts) of the same molecule?
Answer: The Cmax was 41.9 to 436 ng/mL.

Question: What about the Tmax (QD, 25 mg to 150 mg, C1D21, read-out: median Tmax, range across cohorts) of the same molecule?
Answer: Its Tmax is 1.5 to 2.1 h.

Question: And the AUC(0-t) (QD, 25 mg to 175 mg, C1D1, read-out: mean AUC0–last, range across cohorts)?
Answer: Its AUC(0-t) is 270 to 1580 ng·h/mL.

Question: And the Cmax (QD, 25 mg to 175 mg, C1D1, read-out: mean Cmax, range across cohorts)?
Answer: The Cmax was 32.5 to 357 ng/mL.

Question: And the Tmax (QD, 25 mg to 175 mg, C1D1, read-out: median Tmax, range across cohorts)?
Answer: The Tmax was 0.9 to 2.1 h.

Question: What about the concentration at 21 days (after 21 days of BID dosing) of the same molecule?
Answer: Its concentration at 21 days is 146 to 472 ng/mL.

Question: And the concentration at 21 days (after 21 days of QD dosing)?
Answer: The concentration at 21 days was 10.3 to 152 ng/mL.

Question: What about the Tmax (overall, as stated in the abstract, read-out: median Tmax) of the same molecule?
Answer: Its Tmax is 2 h.

Question: And the “steady state of plasma concentrations” value (multiple doses, QD and BID)?
Answer: The value was “appeared to reach a steady state by day 21”.
